The values below come from publication PMC7406649, “The rare sugar D-tagatose protects plants from downy mildews and is a safe fungicidal agrochemical” (Communications Biology, 2020).

Holding throughout (format): biochemical
For assay [1], the target named is T1, phosphomannose isomerase (LC500563) (Hyaloperonospora arabidopsidis, UniProt A0A7G1GEM8).
T1 construct: coding region in pColdI, His tag kept (45 kDa), expressed in E. coli SHuffle Express, HisTrap purified; equivalent to Hpa802576 of isolate Emoy2
T1 sequence (A0A7G1GEM8 1-415): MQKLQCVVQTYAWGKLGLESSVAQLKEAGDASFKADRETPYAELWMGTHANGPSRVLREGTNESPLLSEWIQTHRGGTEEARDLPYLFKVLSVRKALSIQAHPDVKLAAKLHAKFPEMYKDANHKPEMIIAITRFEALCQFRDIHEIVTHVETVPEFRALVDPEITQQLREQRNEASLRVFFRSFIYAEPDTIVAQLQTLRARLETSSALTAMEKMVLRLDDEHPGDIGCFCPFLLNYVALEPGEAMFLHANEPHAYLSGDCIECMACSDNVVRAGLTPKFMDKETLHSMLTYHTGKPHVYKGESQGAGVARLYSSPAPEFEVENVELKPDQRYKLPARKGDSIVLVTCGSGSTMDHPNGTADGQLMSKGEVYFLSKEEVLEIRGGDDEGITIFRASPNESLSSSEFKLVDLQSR
The assay is described as follows: HPLC of ABEE-labelled products. The note with it: 2.5 mM substrate, 10 mM MgCl2, pH 7.4, 30 °C, 6 h; products D-glucose 6-phosphate and D-mannose 6-phosphate.

Assay [2] addresses T1, phosphomannose isomerase (LC500563). Description: HPLC of ABEE-labelled products; D-mannose 6-phosphate formation. The note with it: read-out: % inhibition at 37.5 mM.
For assay [3] the target is unchanged. Description: HPLC of ABEE-labelled products; D-glucose 6-phosphate formation. The note with it: read-out: % inhibition at 37.5 mM.
For assay [4], the target named is T2, fructokinase (LC500344) (Hyaloperonospora arabidopsidis, UniProt A0A7G1GEU5).
T2 construct: coding region in pGEX5X-1, N-terminal GST tag kept (58 kDa with tag), expressed in E. coli SoluBL21, GSTrap purified; equivalent to Hpa812304 of isolate Emoy2
T2 sequence (A0A7G1GEU5 1-297): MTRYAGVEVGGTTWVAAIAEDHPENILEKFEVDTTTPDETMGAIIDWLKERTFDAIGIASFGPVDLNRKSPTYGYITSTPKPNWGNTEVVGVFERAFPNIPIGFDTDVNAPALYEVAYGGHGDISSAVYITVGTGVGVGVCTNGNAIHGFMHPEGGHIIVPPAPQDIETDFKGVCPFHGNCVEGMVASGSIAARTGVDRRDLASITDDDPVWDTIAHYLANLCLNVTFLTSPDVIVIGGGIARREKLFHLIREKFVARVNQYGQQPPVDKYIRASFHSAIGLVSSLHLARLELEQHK
Description: Dixon plot; coupled pyruvate kinase/lactate dehydrogenase NADH assay at […] nm. The note with it: competitive with D-fructose (0.5-2.5 mM); 10-250 mM D-tagatose; 4 mM ATP, 8 mM MgCl2, pH 7.5, 25 °C; D-tagatose is also a substrate.

Molecules are shown by their SMILES.

For `O=P(O)(O)OC[C@H]1OC(O)(CO)[C@@H](O)[C@@H]1O` (stereo partly drawn) [D-fructose 6-phosphate], the “HPLC of ABEE-labelled products” value in assay [1] is “both D-glucose 6-phosphate and D-mannose 6-phosphate were detected after the addition of D-fructose 6-phosphate”.
For the molecule `O=P(O)(O)OC[C@H]1OC(O)(CO)[C@@H](O)[C@H]1O` (stereo partly drawn) [D-tagatose 6-phosphate], the inhibition at 37500 µM in assay [2] stood at 60.8%; in assay [3], 38.2%.
Turning to `OCC1(O)OC[C@@H](O)[C@H](O)[C@@H]1O` (stereo partly drawn) [D-tagatose], in assay [4], the Ki worked out at 70 ± 5.14 mM.

Usually inhibition stands for the relative decrease from the control value, in per cent. Usually Ki stands for a dissociation constant, usually derived from enzyme kinetics or from competition with a known ligand.
